The source of these data is patent publication US4737494A, “1,3-dithiole derivatives and pharmaceutical compositions” (priority 1984, dated 1988).

The subject of the test is acute liver injury induced by carbon tetrachloride. Description: Protective effect on acute liver injury induced by carbon tetrachloride (mice, oral): plasma GPT activity and BSP retention. Format: in vivo, mice (ddY, male). Particulars: 6 h before CCl4 (0.05 ml/kg p.o.); for GPT activity: plasma; for Retained BSP: plasma 30 min after BSP 75 mg/kg i.v. On the procedure: 1. Protective Effect on Acute Liver Injury Induced by Carbon Tetrachloride
A test compound was dissolved or suspended in olive oil and administered orally to mice (ddY mice, .male., 23±2 g, n=5). After 6 hours, carbon tetrachloride (0.05 ml/kg) was administered orally. 24 Hours after the administration of carbon tetrachloride, BSP (sodium sulfobromophthalein; 75 mg/kg) was administered intravenously. Thirty minutes later, the cardiac blood was collected, and GPT (glutamic-pyruvic transaminase) activity and the retention rate of BSP in the plasma were measured.

Regarding `CCOC(=O)C[N+](C)=c1sccs1.[O-][Cl+3]([O-])([O-])[O-]` [Compound No. 1, N-(1,3-dithiol-2-ylidene)-N-methyl-N-ethoxycarbonylmethylammonium perchlorate], the GPT activity by setting is: (1 mg/kg) 3280 ± 399 Karmen units; (5 mg/kg) 183 ± 74 Karmen units. Moreover, the “Retained BSP” value runs as follows: (1 mg/kg) 53.2 ± 11.4 µg/mL; (5 mg/kg) 18.4 ± 1.3 µg/mL.

For `CNC(=O)C[N+](C)=c1sccs1` [Compound No. 3, N-(1,3-dithiol-2-ylidene)-N-methyl-N-(N'-methylcarbamoylmethyl)ammonium perchlorate], where the note is “1 mg/kg”, the GPT activity came out at 3740 ± 430 Karmen units and the “Retained BSP” value was found to be 67.1 ± 14.3 µg/mL. Besides, for the setting “5 mg/kg”, the GPT activity turned out to be 541 ± 101 Karmen units and the “Retained BSP” value was determined as 27.1 ± 10.1 µg/mL.

As to `C[N+](CCC#N)=c1sccs1.[I-]` [Compound No. 4, N-(1,3-dithiol-2-ylidene)-N-methyl-N-(2-cyanoethyl)ammonium iodide], where the note is “1 mg/kg”, the GPT activity amounted to 2535 ± 158 Karmen units and the “Retained BSP” value came out at 42.6 ± 2.3 µg/mL. Moreover, where the note is “5 mg/kg”, the GPT activity is 543 ± 92 Karmen units and the “Retained BSP” value was found to be 29.4 ± 11.1 µg/mL.

With `C[N+](=c1sccs1)C1CCCCC1.[O-][Cl+3]([O-])([O-])[O-]` [Compound No. 7, N-(1,3-dithiol-2-ylidene)-N-methyl-N-cyclohexylammonium perchlorate], under “1 mg/kg”, the GPT activity turned out to be 4920 ± 670 Karmen units and the “Retained BSP” value is 120.1 ± 17.1 µg/mL. Where the note is “5 mg/kg”, the GPT activity turned out to be 1400 ± 77 Karmen units and the “Retained BSP” value amounted to 57.1 ± 5.1 µg/mL.

Take `C[N+](c1ccccc1)=c1sccs1.[O-][Cl+3]([O-])([O-])[O-]` [Compound No. 8, N-(1,3-dithiol-2-ylidene)-N-methyl-N-phenylammonium perchlorate]: the GPT activity runs as follows: (1 mg/kg) 2394 ± 193 Karmen units; (5 mg/kg) 117 ± 28 Karmen units. Besides, the “Retained BSP” value came to 39.3 ± 10.7 µg/mL (1 mg/kg) and 11.6 ± 1.5 µg/mL (5 mg/kg).

`Cc1cccc([N+](C)=c2sccs2)c1.[O-][Cl+3]([O-])([O-])[O-]` [Compound No. 9, N-(1,3-dithiol-2-ylidene)-N-methyl-N-(m-tolyl)ammonium perchlorate]: where the note is “1 mg/kg”, the GPT activity stood at 2250 ± 325 Karmen units and the “Retained BSP” value turned out to be 73.1 ± 14.7 µg/mL. Further, under “5 mg/kg”, the GPT activity is on record as 191 ± 71 Karmen units and the “Retained BSP” value was 21.4 ± 2.1 µg/mL.

As to `C[N+](Cc1ccccc1)=c1sccs1.[O-][Cl+3]([O-])([O-])[O-]` [Compound No. 10, N-(1,3-dithiol-2-ylidene)-N-methyl-N-benzylammonium perchlorate], where the note is “1 mg/kg”, the GPT activity came out at 1865 ± 106 Karmen units and the “Retained BSP” value is 29.5 ± 6.0 µg/mL. Further, for the setting “5 mg/kg”, the GPT activity came out at 108 ± 27 Karmen units and the “Retained BSP” value is 16.6 ± 1.6 µg/mL.

On to `C=CC[N+](CC=C)=c1sccs1.[O-][Cl+3]([O-])([O-])[O-]` [Compound No. 12, N-(1,3-dithiol-2-ylidene)-N,N-diallylammonium perchlorate], for which, for the setting “1 mg/kg”, the GPT activity was 5438 ± 401 Karmen units and the “Retained BSP” value worked out at 109.3 ± 14.8 µg/mL. For the setting “5 mg/kg”, the GPT activity turned out to be 1241 ± 103 Karmen units and the “Retained BSP” value was 25.4 ± 5.0 µg/mL.

Turning to `[O-][Cl+3]([O-])([O-])[O-].c1ccc(C[N+](Cc2ccccc2)=c2sccs2)cc1` [Compound No. 16, N-(1,3-dithiol-2-ylidene)-N,N-dibenzylammonium perchlorate], under “1 mg/kg”, the GPT activity is recorded as 4121 ± 311 Karmen units and the “Retained BSP” value was 107.4 ± 13.9 µg/mL. Besides, for the setting “5 mg/kg”, the GPT activity turned out to be 1017 ± 37 Karmen units and the “Retained BSP” value was 21.8 ± 6.0 µg/mL.

For the molecule `COC(=O)CC(C(=O)OC)[N+](C)=c1sccs1.[O-][Cl+3]([O-])([O-])[O-]` (stereo not shown) [Compound No. 17, N-(1,3-dithiol-2-ylidene)-N-methyl-N-(1,2-dimethoxycarbonylethyl)ammonium perchlorate], the GPT activity runs as follows: (1 mg/kg) 4760 ± 298 Karmen units; (5 mg/kg) 3883 ± 324 Karmen units. Also, the “Retained BSP” value is 135 ± 8.9 µg/mL (1 mg/kg) and 86 ± 11.1 µg/mL (5 mg/kg).

On to `CC(C)CC(C(=O)OC(C)C)[N+](C)=c1sccs1.[O-][Cl+3]([O-])([O-])[O-]` (stereo not shown) [Compound No. 18, N-(1,3-dithiol-2-ylidene)-N-methyl-N-(3-methyl-1-isopropoxycarbonylbutyl)ammonium perchlorate], for which the GPT activity is on record as 4100 ± 615 Karmen units (1 mg/kg) and 3250 ± 365 Karmen units (5 mg/kg). Besides, the “Retained BSP” value (1 mg/kg) was determined as 106.9 ± 17.5 µg/mL and the “Retained BSP” value (5 mg/kg) worked out at 44.1 ± 5.2 µg/mL.

`[O-][Cl+3]([O-])([O-])[O-].c1csc(=[N+]2CCOCC2)s1` [Compound No. 26, 4-(1,3-dithiol-2-ylidene)morpholinium perchlorate]: for the setting “1 mg/kg”, the GPT activity came to 483 ± 178 Karmen units and the “Retained BSP” value worked out at 21.6 ± 2.7 µg/mL. In addition, for the setting “5 mg/kg”, the GPT activity amounted to 113 ± 32 Karmen units and the “Retained BSP” value is 13.8 ± 2.5 µg/mL.

For the molecule `[O-][Cl+3]([O-])([O-])[O-].c1csc(=[N+]2CCCCC2)s1` [Compound No. 34, 1-(1,3-dithiol-2-ylidene)piperidinium perchlorate], where the note is “1 mg/kg”, the GPT activity is listed as 512 ± 205 Karmen units and the “Retained BSP” value is 26.5 ± 8.0 µg/mL. Besides, for the setting “5 mg/kg”, the GPT activity turned out to be 116 ± 39 Karmen units and the “Retained BSP” value is 15.6 ± 3.0 µg/mL.

As to `[O-][Cl+3]([O-])([O-])[O-].c1csc(=[N+]2CCCC2)s1` [Compound No. 35, 1-(1,3-dithiol-2-ylidene)pyrrolidinium perchlorate], where the note is “1 mg/kg”, the GPT activity was 4239 ± 816 Karmen units and the “Retained BSP” value was 101.2 ± 22.6 µg/mL. In addition, where the note is “5 mg/kg”, the GPT activity was 2472 ± 820 Karmen units and the “Retained BSP” value turned out to be 35.8 ± 12.4 µg/mL.

Regarding `CCOC(=O)C1CCC[N+]1=c1sccs1.[Cl-]` (stereo not shown) [Compound No. 42, 1-(1,3-dithiol-2-ylidene)-2-ethoxycarbonyl pyrrolidinium chloride], under “1 mg/kg”, the GPT activity was found to be 1673 ± 214 Karmen units and the “Retained BSP” value turned out to be 53.1 ± 6.3 µg/mL. Besides, under “5 mg/kg”, the GPT activity amounted to 231 ± 43 Karmen units and the “Retained BSP” value is 21.4 ± 3.5 µg/mL.

Regarding `NC(=O)C1CCC[N+]1=c1sccs1.[I-]` (stereo not shown) [Compound No. 44, 1-(1,3-dithiol-2-ylidene)-2-carbamoylpyrrolidinium iodide], where the note is “1 mg/kg”, the GPT activity is recorded as 6311 ± 867 Karmen units and the “Retained BSP” value was found to be 134.7 ± 21.7 µg/mL. Moreover, under “5 mg/kg”, the GPT activity was 5213 ± 716 Karmen units and the “Retained BSP” value worked out at 119.4 ± 11.8 µg/mL.

Turning to `CCCCCCC1CCC[N+]1=c1sccs1.[O-][Cl+3]([O-])([O-])[O-]` (stereo not shown) [Compound No. 45, 1-(1,3-dithiol-2-ylidene)-2-(n-hexyl)pyrrolidinium perchlorate], for the setting “1 mg/kg”, the GPT activity was determined as 4264 ± 521 Karmen units and the “Retained BSP” value was determined as 110 ± 20.5 µg/mL. Further, for the setting “5 mg/kg”, the GPT activity stood at 1072 ± 282 Karmen units and the “Retained BSP” value was found to be 76 ± 6.3 µg/mL.

Molecule `[O-][Cl+3]([O-])([O-])[O-].c1ccc(C2CCC[N+]2=c2sccs2)cc1` (stereo not shown) [Compound No. 46, 1-(1,3-dithiol-2-ylidene)-2-phenylpyrrolidinium perchlorate] came in with a GPT activity (1 mg/kg) of 3978 ± 627 Karmen units and a GPT activity (5 mg/kg) of 1040 ± 121 Karmen units. In addition, the “Retained BSP” value reads like this: (1 mg/kg) 101 ± 17.4 µg/mL; (5 mg/kg) 69 ± 7.1 µg/mL.

As for `CC1CCC[N+](=c2sccs2)C1.[O-][Cl+3]([O-])([O-])[O-]` (stereo not shown) [Compound No. 52, 1-(1,3-dithiol-2-ylidene)-3-methylpiperidinium perchlorate], for the setting “1 mg/kg”, the GPT activity was 2391 ± 325 Karmen units and the “Retained BSP” value turned out to be 87.1 ± 13.4 µg/mL. Further, for the setting “5 mg/kg”, the GPT activity is given as 138 ± 18 Karmen units and the “Retained BSP” value is 17.8 ± 4.9 µg/mL.

In the case of `CC1CC[N+](=c2sccs2)CC1.[O-][Cl+3]([O-])([O-])[O-]` (stereo not shown) [Compound No. 53, 1-(1,3-dithiol-2-ylidene)-4-methylpiperidinium perchlorate], under “1 mg/kg”, the GPT activity is 1843 ± 162 Karmen units and the “Retained BSP” value was determined as 70.0 ± 19.3 µg/mL. For the setting “5 mg/kg”, the GPT activity was determined as 193 ± 81 Karmen units and the “Retained BSP” value was 16.9 ± 3.1 µg/mL.

As for `O=C(O)C1CC[N+](=c2sccs2)CC1.[O-][Cl+3]([O-])([O-])[O-]` (stereo not shown) [Compound No. 57, 1-(1,3-dithiol-2-ylidene)-4-carboxypiperidinium perchlorate], for the setting “1 mg/kg”, the GPT activity stood at 3735 ± 374 Karmen units and the “Retained BSP” value stood at 101.1 ± 20.0 µg/mL. For the setting “5 mg/kg”, the GPT activity turned out to be 2922 ± 247 Karmen units and the “Retained BSP” value is 90.1 ± 14.7 µg/mL.

Consider `NC(=O)C1CC[N+](=c2sccs2)CC1.[I-]` (stereo not shown) [Compound No. 58, 1-(1,3-dithiol-2-ylidene)-4-carbamoylpiperidinium iodide], for which, where the note is “1 mg/kg”, the GPT activity stood at 3266 ± 245 Karmen units and the “Retained BSP” value came to 98.1 ± 21.0 µg/mL. Besides, under “5 mg/kg”, the GPT activity worked out at 1151 ± 181 Karmen units and the “Retained BSP” value stood at 41.5 ± 7.1 µg/mL.
